# Source: US9902725B2, “Heterocyclic derivatives as RORgamma modulators” (GENFIT, priority 2014, dated 2018)
# Molecular target: T1, RORγt ligand-binding domain (RORγt-LBD) (Homo sapiens, UniProt P51449)
# T1 construct: 20 nM recombinantly expressed RORγ-LBD fused to GST
# T1 sequence (P51449 269-508 limits assumed): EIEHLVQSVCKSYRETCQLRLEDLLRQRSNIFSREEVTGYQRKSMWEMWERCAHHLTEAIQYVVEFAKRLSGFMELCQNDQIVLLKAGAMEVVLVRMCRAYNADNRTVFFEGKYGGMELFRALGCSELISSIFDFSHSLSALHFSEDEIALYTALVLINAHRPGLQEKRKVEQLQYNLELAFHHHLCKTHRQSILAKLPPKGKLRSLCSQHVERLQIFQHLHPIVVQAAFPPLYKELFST
# Assay: Time-resolved FRET (TR-FRET) RORγt coactivator assay
# Format: biochemical
# Conditions: GST-RORγ-LBD, biotinylated RIP140 peptide, coactivator displacement
# From the text: Time-resolved FRET (TR-FRET) RORγt coactivator assay was used to identify RORγ modulator compounds with ligand-dependent coactivator displacement. The assay uses a d2-labeled anti-GST antibody, synthetic N-terminally biotinylated peptide which is derived from nuclear receptor coactivator protein RIP140, and a RORγt ligand-binding domain (RORγt-LBD) that is tagged with glutathione-S-transferase (GST). The influence of compounds on the RORγ-peptide interaction relies on the binding dependent energy transfer from a donor to an acceptor fluorophore attached to the binding partner of interest. […] For reduction of background from compound fluorescence, TR-FRET method makes use of generic fluorophore labels and time resolved detection.
# The assays were done in a final volume of 20 μl in a 384 well plate in a CHAPS buffer (2 mM CHAPS; 1 mM DTT, 2 mM EDTA; 0.1% BSA), containing 20 nM recombinantly expressed RORγ-LBD fused to GST, 30 nM N-terminally biotinylated peptide, 1 nM streptavidin-terbium conjugate and 20 nM d2 labeled-anti-GST. Test compounds were diluted using 10 mM stock solution. The range of the final compound concentrations used in this test was from 0.3 nM to 30 μM (logarithmic scale). DMSO content of the samples was kept at 1%. The assay was equilibrated for 2 hours in the dark at room temperature in 384 well plates (Falcon). The signal was detected by an Ultra384 reader (TECAN). The results were visualized by plotting the ratio between the emitted light at 665 nm and 620 nm. A basal level of RORγ-peptide formation is observed in the absence of added compound. Compounds that promote coactivator displacement induce a concentration-dependent decrease in time-resolved fluorescent signal. Data were collected and analyzed using GraphPad Prism software (GraphPad Software V5.02, San Diego Calif. USA). IC50 in μM and Emax in % were reported for each compound.
row,IC50,Compound
1,1000 to 10000 nM,"CC(C)(C)OC(=O)CCc1c[nH]c2ccc(CC(=O)NC(c3ccccc3)c3ccccc3N3CCCCC3)cc12 (centres unmarked) [Cpd. 2, tert-butyl 3-{5-[({phenyl[2-(piperidin-1-yl)phenyl]methyl}carbamoyl)methyl]-1H-indol-3-yl}propanoate]"
2,< 1000 nM,"Cc1ccc(C(NC(=O)Cc2ccc3[nH]cc(CCC(=O)O)c3c2)c2ccccc2)c(C)c1 (centres unmarked) [Cpd. 11, 3-[5-({[(2,4-dimethylphenyl)(phenyl)methyl]carbamoyl}methyl)-1H-indol-3-yl]propanoic acid]"
3,< 1000 nM,"Cc1ccc(C)c(C(NC(=O)Cc2ccc3[nH]cc(CCC(=O)O)c3c2)c2ccccc2)c1 (centres unmarked) [Cpd. 13, 3-[5-({[(2,5-dimethylphenyl)(phenyl)methyl]carbamoyl}methyl)-1H-indol-3-yl]propanoic acid]"
4,1000 to 10000 nM,"Cc1cc(Cl)ccc1C(NC(=O)Cc1ccc2[nH]cc(CCC(=O)OC(C)(C)C)c2c1)c1ccccc1 (centres unmarked) [Cpd. 34, tert-butyl 3-[5-({[(4-chloro-2-methylphenyl)(phenyl)methyl]carbamoyl}methyl)-1H-indol-3-yl]propanoate]"
5,< 1000 nM,"COC(=O)Cc1c[nH]c2ccc(CC(=O)NC(c3ccccc3)c3ccccc3N3CCCCC3)cc12 (centres unmarked) [Cpd. 40, methyl 2-{5-[({phenyl[2-(piperidin-1-yl)phenyl]methyl}carbamoyl)methyl]-1H-indol-3-yl}acetate]"
6,1000 to 10000 nM,"Cc1ccc(Cl)c(C(NC(=O)Cc2ccc3[nH]cc(CCC(=O)OC(C)(C)C)c3c2)c2ccccc2)c1 (centres unmarked) [Cpd. 41, tert-butyl 3-[5-({[(2-chloro-5-methylphenyl)(phenyl)methyl]carbamoyl}methyl)-1H-indol-3-yl]propanoate]"
7,10000 to 30000 nM,"Cc1cc(F)ccc1C(NC(=O)Cc1ccc2[nH]cc(CCC(=O)OC(C)(C)C)c2c1)c1ccccc1 (centres unmarked) [Cpd. 45, tert-butyl 3-[5-({[(4-fluoro-2-methylphenyl)(phenyl)methyl]carbamoyl}methyl)-1H-indol-3-yl]propanoate]"
8,1000 to 10000 nM,"CC(C)(C)OC(=O)CCc1c[nH]c2ccc(CC(=O)NC(c3ccccc3)c3ccccc3N)cc12 (centres unmarked) [Cpd. 51, tert-butyl 3-[5-({[(2-aminophenyl)(phenyl)methyl]carbamoyl}methyl)-1H-indol-3-yl]propanoate]"
9,1000 to 10000 nM,"CN(C)c1ccccc1C(NC(=O)Cc1ccc2[nH]cc(CCC(=O)OC(C)(C)C)c2c1)c1ccccc1 (centres unmarked) [Cpd. 53, tert-butyl 3-{5-[({[2-(dimethylamino)phenyl](phenyl)methyl}carbamoyl)methyl]-1H-indol-3-yl}propanoate]"
10,1000 to 10000 nM,"CC(C)CC(NC(=O)Cc1ccc2[nH]cc(CCC(=O)OC(C)(C)C)c2c1)c1ccccc1N1CCOCC1 (centres unmarked) [Cpd. 57, tert-butyl 3-{5-[({3-methyl-1-[2-(morpholin-4-yl)phenyl]butyl}carbamoyl)methyl]-1H-indol-3-yl}propanoate]"
11,< 1000 nM,"N#Cc1ccc(C(NC(=O)Cc2ccc3[nH]cc(CCC(=O)O)c3c2)c2ccccc2)c(N2CCCC2)c1 (centres unmarked) [Cpd. 60, 3-{5-[({[4-cyano-2-(pyrrolidin-1-yl)phenyl](phenyl)methyl}carbamoyl)methyl]-1H-indol-3-yl}propanoic acid]"
12,1000 to 10000 nM,"CC(C)(C)OC(=O)CCc1c[nH]c2ccc(CC(=O)NC(c3ccccc3)c3cc(Cl)ccc3N3CCCCC3)cc12 (centres unmarked) [Cpd. 61, tert-butyl 3-{5-[({[5-chloro-2-(piperidin-1-yl)phenyl](phenyl)methyl}carbamoyl)methyl]-1H-indol-3-yl}propanoate]"
13,< 1000 nM,"COC(=O)Cc1c[nH]c2ccc(CC(=O)NC(c3ccccc3)c3ccc(Br)cc3N3CCCC3)cc12 (centres unmarked) [Cpd. 66, methyl 2-{5-[({[4-bromo-2-(pyrrolidin-1-yl)phenyl](phenyl)methyl}carbamoyl)methyl]-1H-indol-3-yl}acetate]"
14,1000 to 10000 nM,"COC(=O)Cc1c[nH]c2ccc(NC(=O)NC(c3ccccc3)c3ccccc3N3CCCCC3)cc12 (centres unmarked) [Cpd. 68, methyl 2-{5-[({phenyl[2-(piperidin-1-yl)phenyl]methyl}carbamoyl)amino]-1H-indol-3-yl}acetate]"
15,< 1000 nM,"COC(=O)Cc1c[nH]c2ccc(CC(=O)NC(c3ccccc3)c3ccccc3N(C)C)cc12 (centres unmarked) [Cpd. 70, methyl 2-{5-[({[2-(dimethylamino)phenyl](phenyl)methyl}carbamoyl)methyl]-1H-indol-3-yl}acetate]"
16,< 1000 nM,"COC(=O)Cc1c[nH]c2ccc(CC(=O)NC(c3ccccc3)c3ccccc3N3CCCC3)cc12 (centres unmarked) [Cpd. 72, methyl 2-{5-[({phenyl[2-(pyrrolidin-1-yl)phenyl]methyl}carbamoyl)methyl]-1H-indol-3-yl}acetate]"
17,< 1000 nM,"COC(=O)Cc1c[nH]c2ccc(CC(=O)NC(c3ccccc3)c3ccccc3N3CCCCCC3)cc12 (centres unmarked) [Cpd. 74, methyl 2-{5-[({[2-(azepan-1-yl)phenyl](phenyl)methyl}carbamoyl)methyl]-1H-indol-3-yl}acetate]"
18,< 1000 nM,"Cc1ccc(C(NC(=O)Cc2ccc3[nH]cc(CCC(=O)OC(C)(C)C)c3c2)c2ccccc2)c(N2CCOCC2)c1 (centres unmarked) [Cpd. 80, tert-butyl 3-{5-[({[4-methyl-2-(morpholin-4-yl)phenyl](phenyl)methyl}carbamoyl)methyl]-1H-indol-3-yl}propanoate]"
19,1000 to 10000 nM,"CC(C)(C)OC(=O)CCc1c[nH]c2ccc(CC(=O)NC(c3ccccc3)c3ccc(F)cc3N3CCCC3)cc12 (centres unmarked) [Cpd. 92, tert-butyl 3-{5-[({[4-fluoro-2-(pyrrolidin-1-yl)phenyl](phenyl)methyl}carbamoyl)methyl]-1H-indol-3-yl}propanoate]"
20,1000 to 10000 nM,"CC(C)(C)OC(=O)CCc1c[nH]c2ncc(NC(=O)NC(c3ccccc3)c3ccccc3N3CCCCC3)cc12 (centres unmarked) [Cpd. 94, tert-butyl 3-{5-[({phenyl[2-(piperidin-1-yl)phenyl]methyl}carbamoyl)amino]-1H-pyrrolo[2,3-b]pyridin-3-yl}propanoate]"
21,1000 to 10000 nM,"Cc1ccc(C(NC(=O)Cc2ccc3[nH]cc(CC(=O)O)c3c2)c2ccccc2)c(N2CCOCC2)c1 (centres unmarked) [Cpd. 97, 2-{5-[({[4-methyl-2-(morpholin-4-yl)phenyl](phenyl)methyl}carbamoyl)methyl]-1H-indol-3-yl}acetic acid]"
22,1000 to 10000 nM,"Cc1ccc(C(NC(=O)Cc2ccc3[nH]cc(CCC(=O)OC(C)(C)C)c3c2)c2ccc(C)s2)c(C)c1 (centres unmarked) [Cpd. 100, tert-butyl 3-[5-({[(2,4-dimethylphenyl)(5-methylthiophen-2-yl)methyl]carbamoyl}methyl)-1H-indol-3-yl]propanoate]"
23,1000 to 10000 nM,"Cc1ccc(C(NC(=O)Cc2ccc3[nH]cc(CCC(=O)OC(C)(C)C)c3c2)c2ccccc2)c(N2CCN(C)CC2)c1 (centres unmarked) [Cpd. 102, tert-butyl 3-{5-[({[4-methyl-2-(4-methylpiperazin-1-yl)phenyl](phenyl)methyl}carbamoyl)methyl]-1H-indol-3-yl}propanoate]"
24,1000 to 10000 nM,"CC(C)CC(NC(=O)Cc1ccc2[nH]cc(CCC(=O)OC(C)(C)C)c2c1)c1cccc2ccccc12 (centres unmarked) [Cpd. 104, tert-butyl 3-[5-({[3-methyl-1-(naphthalen-1-yl)butyl]carbamoyl}methyl)-1H-indol-3-yl]propanoate]"
25,1000 to 10000 nM,"CC(C)(C)OC(=O)CCc1c[nH]c2ccc(CC(=O)NC(c3ccccc3)c3ccccc3-n3cccc3)cc12 (centres unmarked) [Cpd. 106, tert-butyl 3-{5-[({phenyl[2-(1H-pyrrol-1-yl)phenyl]methyl}carbamoyl)methyl]-1H-indol-3-yl}propanoate]"
26,1000 to 10000 nM,"Cc1ccc(N2CCCCC2)c(C(NC(=O)Cc2ccc3[nH]cc(CCC(=O)OC(C)(C)C)c3c2)c2ccccc2)c1 (centres unmarked) [Cpd. 113, tert-butyl 3-{5-[({[5-methyl-2-(piperidin-1-yl)phenyl](phenyl)methyl}carbamoyl)methyl]-1H-indol-3-yl}propanoate]"
27,1000 to 10000 nM,"CC(C)(C)OC(=O)CCc1c[nH]c2ccc(CC(=O)NC(c3ccccc3)c3cc(Br)ccc3N3CCCC3)cc12 (centres unmarked) [Cpd. 116, tert-butyl 3-{5-[({[5-bromo-2-(pyrrolidin-1-yl)phenyl](phenyl)methyl}carbamoyl)methyl]-1H-indol-3-yl}propanoate]"
28,< 1000 nM,"CN(C)Cc1ccccc1C(NC(=O)Cc1ccc2[nH]cc(CCC(=O)O)c2c1)c1ccccc1 (centres unmarked) [Cpd. 122, 3-(5-{[({2-[(dimethylamino)methyl]phenyl}(phenyl)methyl)carbamoyl]methyl}-1H-indol-3-yl)propanoic acid]"
29,1000 to 10000 nM,"CC(C)(C)OC(=O)CCc1c[nH]c2ccc(CC(=O)NC(c3ccccc3)c3ccccc3N3CCCC(O)C3)cc12 (centres unmarked) [Cpd. 123, tert-butyl 3-{5-[({[2-(3-hydroxypiperidin-1-yl)phenyl](phenyl)methyl}carbamoyl)methyl]-1H-indol-3-yl}propanoate]"
